Our source for the IC50 values is US20250215029A1 (Recludix Pharma, Inc., priority 2022, published 2025).

For one assay, the target named is T1, pY641-STAT6 in PBMC (Homo sapiens, UniProt P42226).
T1 construct: Cryopreserved Peripheral Blood Mononuclear Cells (PBMC) are from AllCells; host or cells: cryopreserved PBMC
T1 sequence (P42226 1-847): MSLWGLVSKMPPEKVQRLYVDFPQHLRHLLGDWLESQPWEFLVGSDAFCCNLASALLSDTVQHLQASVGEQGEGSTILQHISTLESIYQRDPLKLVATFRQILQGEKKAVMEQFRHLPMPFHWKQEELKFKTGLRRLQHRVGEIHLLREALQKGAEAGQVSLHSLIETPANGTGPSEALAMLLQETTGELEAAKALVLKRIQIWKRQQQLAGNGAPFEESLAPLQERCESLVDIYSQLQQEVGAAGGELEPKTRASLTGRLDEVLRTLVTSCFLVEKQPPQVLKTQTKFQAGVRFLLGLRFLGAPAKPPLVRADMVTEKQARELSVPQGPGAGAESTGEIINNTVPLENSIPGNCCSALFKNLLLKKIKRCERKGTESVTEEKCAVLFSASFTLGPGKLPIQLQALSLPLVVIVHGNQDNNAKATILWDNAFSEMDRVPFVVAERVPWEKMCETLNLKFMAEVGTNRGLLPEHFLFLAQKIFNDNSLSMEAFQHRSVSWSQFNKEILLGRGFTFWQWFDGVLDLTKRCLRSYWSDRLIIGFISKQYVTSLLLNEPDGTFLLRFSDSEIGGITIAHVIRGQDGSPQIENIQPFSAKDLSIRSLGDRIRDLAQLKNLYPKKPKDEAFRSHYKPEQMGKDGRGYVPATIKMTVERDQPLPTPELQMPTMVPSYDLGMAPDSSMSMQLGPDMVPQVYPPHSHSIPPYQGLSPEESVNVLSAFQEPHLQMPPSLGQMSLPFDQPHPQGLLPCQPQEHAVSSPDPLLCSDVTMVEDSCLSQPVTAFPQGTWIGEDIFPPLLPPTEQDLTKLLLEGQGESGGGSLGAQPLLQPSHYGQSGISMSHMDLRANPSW
Kind of assay: MSD-pSTAT-PBMC Assay (pSTAT6, IL-4 stimulated). Type of assay: cell-based. The settings on record: PBMC, compound 3 hrs, then 1 ng/mL IL-4 for 10 min; Table 115; read-out: STAT6. In short, it runs like this:
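MSD electrochemiluminescence read-out: total STAT captured, probed with anti-pY641-STAT6 or anti-pY705-STAT3. Human PBMC, 3 h compound pretreatment, 10 min stimulation (IL-4 1 ng/mL or IL-6 10 ng/mL). Unstimulated signal subtracted, DMSO-normalized, variable-slope IC50.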
In the case of `CCCOC(=O)[C@H](C)NP(=O)(Cc1ccc2sc(C(=O)N[C@H]3CCCC[C@H]4CC[C@@H](C(=O)N5C[C@@H](C#N)[C@H](c6ccccc6)C5)N4C3=O)cc2c1)Oc1ccccc1` (stereo partly drawn) [Compound 444], the IC50 lay in the range of 0.1 to 1 µM.

The assay is the same for the next values; noted with them: STAT6, PBMC, compound 3 hrs, then 1 ng/mL IL-4 for 10 min; Table 115.
For the molecule `CCCOC(=O)[C@H](C)NP(=O)(Oc1ccccc1)C(F)c1ccc2sc(C(=O)N[C@H]3CCCC[C@H]4CC[C@@H](C(=O)N5CC(c6cccnc6)CC56CC6)N4C3=O)cc2c1` (stereo partly drawn) [Compound 448, propyl ((fluoro(2-(((3S,6S,10aS)-5-oxo-3-(6-(pyridin-3-yl)-4-azaspiro[2.4]heptane-4-carbonyl)decahydropyrrolo[1,2-a]azocin-6-yl)carbamoyl)benzo [b]thiophen-5-yl)methyl)(phenoxy)phosphoryl)-L-alaninate], the IC50 is less than 0.1 µM.
In the case of `CCCOC(=O)[C@H](C)NP(=O)(Oc1ccccc1)C(F)c1ccc2sc(C(=O)N[C@H]3CCCC[C@H]4CC[C@@H](C(=O)N5CC(c6ccn(C)c(=O)c6)CC56CC6)N4C3=O)cc2c1` (stereo partly drawn) [Compound 449, propyl ((fluoro(2-(((3S,6S,10aS)-3-(6-(1-methyl-2-oxo-1,2-dihydropyridin-4-yl)-4-azaspiro[2.4]heptane-4-carbonyl)-5-oxodecahydropyrrolo [1,2-a]azocin-6-yl)carbamoyl)benzo [b]thiophen-5-yl)methyl)(phenoxy)phosphoryl)-L-alaninate], the IC50 was 0.1 to 1 µM.
The same measure, in the same setting: in the case of `CCCOC(=O)[C@H](C)NP(=O)(Oc1ccccc1)C(F)c1ccc2ccc(C(=O)N[C@H]3CCCC[C@H]4CC[C@@H](C(=O)N5CCC(c6ccn(C)c(=O)c6)C5)N4C3=O)cc2c1` (stereo partly drawn) [Compound 450, propyl ((fluoro(7-(((3S,6S,10aS)-3-(3-(1-methyl-2-oxo-1,2-dihydropyridin-4-yl)pyrrolidine-1-carbonyl)-5-oxodecahydropyrrolo [1,2-a]azocin-6-yl)carbamoyl)naphthalen-2-yl)methyl)(phenoxy)phosphoryl)-L-alaninate] it was 0.1 to 1 µM; in that of `CCCOC(=O)[C@H](C)NP(=O)(Oc1ccccc1)C(F)c1ccc2ccc(C(=O)N[C@H]3CCCC[C@H]4CC[C@@H](C(=O)N5CCC(F)(c6ccn(C)c(=O)c6)C5)N4C3=O)cc2c1` (stereo partly drawn) [Compound 451, propyl ((fluoro(7-(((3S,6S,10aS)-3-(3-fluoro-3-(1-methyl-2-oxo-1,2-dihydropyridin-4-yl)pyrrolidine-1-carbonyl)-5-oxodecahydropyrrolo [1,2-a]azocin-6-yl)carbamoyl)naphthalen-2-yl)methyl)(phenoxy)phosphoryl)-L-alaninate], 0.1 to 1 µM.
On the same count and under the same terms, in the case of `CCCOC(=O)[C@H](C)NP(=O)(Oc1ccccc1)C(F)c1ccc2sc(C(=O)N[C@H]3CCCC[C@H]4CC[C@@H](C(=O)N5C(=O)N(c6cccnc6)C(=O)C56CC6)N4C3=O)cc2c1` (stereo partly drawn) [Compound 452, propyl (((2-(((3S,6S,10aS)-3-(5,7-dioxo-6-(pyridin-3-yl)-4,6-diazaspiro[2.4]heptane-4-carbonyl)-5-oxodecahydropyrrolo [1,2-a]azocin-6-yl)carbamoyl)benzo [b]thiophen-5-yl)fluoromethyl) (phenoxy)phosphoryl)-L-alaninate] it was less than 0.1 µM.
The same measure, in the same setting: under `CCCOC(=O)[C@H](C)NP(=O)(Oc1ccccc1)C(F)c1ccc2ccc(C(=O)N[C@H]3CCC[C@H]4CC[C@@H](C(=O)N5CC(c6cccnc6)CC56CC6)N4C3=O)cc2c1` (stereo partly drawn) [Compound 453, propyl ((fluoro(7-(((3S,6S,9aS)-5-oxo-3-(6-(pyridin-3-yl)-4-azaspiro[2.4]heptane-4-carbonyl)octahydro-1H-pyrrolo[1,2-a]azepin-6-yl)carbamoyl)naphthalen-2-yl)methyl)(phenoxy)phosphoryl)-L-alaninate] stands 0.1 to 1 µM; under `CCCOC(=O)[C@H](C)NP(=O)(Oc1ccccc1)C(F)c1ccc2ccc(C(=O)N[C@H]3CCCC[C@H]4CC[C@@H](C(=O)N5CCC(c6ccn(C7CC7)c(=O)c6)C5)N4C3=O)cc2c1` (stereo partly drawn) [Compound 455, propyl (((7-(((3S,6S,10aS)-3-(3-(1-cyclopropyl-2-oxo-1,2-dihydropyridin-4-yl)pyrrolidine-1-carbonyl)-5-oxodecahydropyrrolo [1,2-a]azocin-6-yl)carbamoyl)naphthalen-2-yl)fluoromethyl) (phenoxy)phosphoryl)-L-alaninate], greater than 3 µM.
For `CCCOC(=O)[C@H](C)NP(=O)(Oc1ccccc1)C(F)c1ccc2sc(C(=O)N[C@H]3CCC[C@H]4CC[C@@H](C(=O)N5CC(c6cccnc6)CC56CC6)N4C3=O)cc2c1` (stereo partly drawn) [Compound 456, propyl ((fluoro(2-(((3S,6S,9aS)-5-oxo-3-(6-(pyridin-3-yl)-4-azaspiro[2.4]heptane-4-carbonyl)octahydro-1H-pyrrolo[1,2-a]azepin-6-yl)carbamoyl)benzo [b]thiophen-5-yl)methyl)(phenoxy)phosphoryl)-L-alaninate], the IC50 was less than 0.1 µM.
Still for that read-out and setting: in the case of `CCCOC(=O)[C@H](C)NP(=O)(Oc1ccccc1)C(F)c1ccc2sc(C(=O)N[C@H]3CCCC[C@H]4CC[C@@H](C(=O)N5CCC(c6cnn(C)c(=O)c6)C5)N4C3=O)cc2c1` (stereo partly drawn) [Compound 465, propyl ((fluoro(2-(((3S,6S,10aS)-3-(3-(1-methyl-6-oxo-1,6-dihydropyridazin-4-yl)pyrrolidine-1-carbonyl)-5-oxodecahydropyrrolo [1,2-a]azocin-6-yl)carbamoyl)benzo [b]thiophen-5-yl)methyl)(phenoxy)phosphoryl)-L-alaninate] it was greater than 3 µM; in that of `CCCOC(=O)[C@H](C)NP(=O)(Oc1ccccc1)C(F)c1ccc2sc(C(=O)N[C@H]3CCCC[C@H]4CC[C@@H](C(=O)N5CCC(O)(c6ccn(C)c(=O)c6)C5)N4C3=O)cc2c1` (stereo partly drawn) [Compound 466, propyl ((fluoro(2-(((3S,6S,10aS)-3-(3-hydroxy-3-(1-methyl-2-oxo-1,2-dihydropyridin-4-yl)pyrrolidine-1-carbonyl)-5-oxodecahydropyrrolo [1,2-a]azocin-6-yl)carbamoyl)benzo [b]thiophen-5-yl)methyl)(phenoxy)phosphoryl)-L-alaninate], greater than 3 µM.
The same measure, in the same setting: in the case of `CCCOC(=O)[C@H](C)NP(=O)(Oc1ccccc1)C(F)c1ccc2sc(C(=O)N[C@H]3CCCC[C@H]4CC[C@@H](C(=O)N5C(=O)N(c6cccnc6)CC56CC6)N4C3=O)cc2c1` (stereo partly drawn) [Compound 467, propyl ((fluoro(2-(((3S,6S,10aS)-5-oxo-3-(5-oxo-6-(pyridin-3-yl)-4,6-diazaspiro[2.4]heptane-4-carbonyl)decahydropyrrolo[1,2-a]azocin-6-yl)carbamoyl)benzo [b]thiophen-5-yl)methyl)(phenoxy)phosphoryl)-L-alaninate] it was greater than 3 µM.
On the same count and under the same terms, in the case of `CCCOC(=O)[C@H](C)NP(=O)(Oc1ccccc1)[C@@H](F)c1ccc2sc(C(=O)N[C@H]3CCCC[C@H]4CC[C@@H](C(=O)N5C(=O)N(c6cccnc6)C(=O)C56CC6)N4C3=O)cc2c1` (stereo partly drawn) [Compound 468, propyl (((R)-(2-(((3S,6S,10aS)-3-(5,7-dioxo-6-(pyridin-3-yl)-4,6-diazaspiro[2.4]heptane-4-carbonyl)-5-oxodecahydropyrrolo [1,2-a]azocin-6-yl)carbamoyl)benzo [b]thiophen-5-yl)fluoromethyl) (phenoxy)phosphoryl)-L-alaninate] it was less than 0.1 µM; in that of `CCCOC(=O)[C@H](C)NP(=O)(Oc1ccccc1)[C@@H](F)c1ccc2sc(C(=O)N[C@H]3CCC[C@H]4CC[C@@H](C(=O)N5C(=O)N(c6cccnc6)C(=O)C56CC6)N4C3=O)cc2c1` (stereo partly drawn) [Compound 469, propyl (((R)-(2-(((3S,6S,9aS)-3-(5,7-dioxo-6-(pyridin-3-yl)-4,6-diazaspiro[2.4]heptane-4-carbonyl)-5-oxooctahydro-1H-pyrrolo[1,2-a]azepin-6-yl)carbamoyl)benzo [b]thiophen-5-yl)fluoromethyl) (phenoxy)phosphoryl)-L-alaninate], 0.1 to 1 µM.
Turning to `CCCOC(=O)[C@H](C)NP(=O)(Oc1ccccc1)[C@@H](F)c1ccc2sc(C(=O)N[C@H]3CC[C@@H](C)C[C@H]4CC[C@@H](C(=O)N5C[C@@H](c6cccnc6)CC56CC6)N4C3=O)cc2c1` (stereo partly drawn) [Compound 470, propyl (((R)-fluoro(2-(((3S,6S,9R,10aR)-9-methyl-5-oxo-3-((R)-6-(pyridin-3-yl)-4-azaspiro[2.4]heptane-4-carbonyl)decahydropyrrolo[1,2-a]azocin-6-yl)carbamoyl)benzo [b]thiophen-5-yl)methyl)(phenoxy)phosphoryl)-L-alaninate], the IC50 is less than 0.1 µM.
